Structures can show the parent of a compound that is named as a salt.
How the values were obtained:
[1] = system: MTT (mouse pheochromocytoma); test: IC50 of cell viability (ATP content); AC50 where efficacy is positive; conditions: (24 or 48 h)
[2] = system: MTT (mouse pheochromocytoma); test: efficacy (maximal response) relative to doxorubicin = -100% and DMSO = 0%; higher = less inhibition of viability; conditions: (24 or 48 h)

Cc1cc(O)c2c3c4c(cc(O)c13)C(C)(C)C(=O)c1c(O)cc(O)c(c1-4)C2=O [HELIOMYCINUM]
IC50 of cell viability [1]: 3.35 µM
efficacy [2]: -46.4%

CC[n+]1c(-c2ccccc2)c2cc(N)ccc2c2ccc(N)cc21.[Br-] [HOMIDIUM BROMIDE]
IC50 of cell viability [1]: 11.9 µM
efficacy [2]: -34.1%

COC(=O)C[C@](O)(CCCC(C)(C)O)C(=O)O[C@H]\1[C@H]2C3=CC4=C(OCO4)C=C3CCN5CCC[C@]25\C=C1OC [Homoharringtonine]
IC50 of cell viability [1]: 0.237 µM
efficacy [2]: -73.7%

Cl.CCC1=C2CN3C(=O)\C4=C(/C=C3/C2=NC5=CC=C(OC(=O)N6CCC(CC6)N7CCCCC7)C=C15)[C@@](O)(CC)C(=O)OC4 [IRINOTECAN HYDROCHLORIDE]
IC50 of cell viability [1]: 11.9 µM
efficacy [2]: -66.8%

CCC(C(=O)C(C)C(O)C(C)CCc1ccc(C)c(O)c1C(=O)[O-])C1OC(CC)(C2CC[C@@](O)(CC)C(C)O2)CC1C.[Na+] (stereo partly drawn) [LASALOCID SODIUM]
IC50 of cell viability [1]: 4.22 µM
efficacy [2]: -40.1%

CCCCCCCCCCCC[n+]1ccc2ccccc2c1 [LAURYL ISOQUINOLINIUM BROMIDE]
IC50 of cell viability [1]: 0.376 µM
efficacy [2]: -31.3%

C[C@]12O[C@H](C[C@]1(O)CO)n1c3ccccc3c3c4c(c5c6ccccc6n2c5c31)CNC4=O [LESTAURTINIB]
IC50 of cell viability [1]: 2.66 µM
efficacy [2]: -83.2%

CN(C)C1=CC=C(C=C1)C(=C2\C=C/C(/C=C2)=[N+](/C)C)\C3=C(O)C(=CC4=CC(=CC=C34)S([O-])(=O)=O)S([O-])(=O)=O [LISSAMINE GREEN B]
IC50 of cell viability [1]: 6.68 µM
efficacy [2]: -54.2%

CN(CCCN1c2ccccc2CCc2ccccc21)CC(=O)c1ccc(Cl)cc1 [LOFEPRAMINE HYDROCHLORIDE]
IC50 of cell viability [1]: 26.6 µM
efficacy [2]: -62.9%

Oc1cccc[c]1[Hg][Cl] [MERCUFENOL CHLORIDE]
IC50 of cell viability [1]: 2.99 µM
efficacy [2]: -83.5%

C\N=C1/C=C\C(\C=C1)=C(/C2=CC=C(C=C2)N(C)C)C3=CC=C(C=C3)N(C)C [METHYL VIOLET]
IC50 of cell viability [1]: 7.5 µM
efficacy [2]: -70.3%

CO[C@@]12[C@H](COC(N)=O)C\3=C(/N1C[C@H]4N[C@@H]24)C(=O)\C(=C(N)/C3=O)C [MITOMYCIN C]
IC50 of cell viability [1]: 1.5 µM
efficacy [2]: -34.6%

CCCCCCCCCCCCCC[n+]1ccc(C)cc1 [MYRISTYL-GAMMA-PICOLINIUM CHLORIDE]
IC50 of cell viability [1]: 0.531 µM
efficacy [2]: -39.7%

CN(C)C1=CC=C(C=C1)C(C2=CC=CC=C2)=C/3\C=C/C(/C=C3)=[N+](C)C [Malachite Green Oxalate]
IC50 of cell viability [1]: 8.41 µM
efficacy [2]: -61.3%

COC(=O)Nc1nc2cc(C(=O)c3ccccc3)ccc2[nH]1 [Mebendazole]
IC50 of cell viability [1]: 0.64 µM
efficacy [2]: -49.2%

CCCCCCCCCCCCCCCC[N+](C)(C)CC [Mecetronium ethylsulfate]
IC50 of cell viability [1]: 11.9 µM
efficacy [2]: -78.5%

Cc1cc(O)c2ccccc2c1O [Menadiol]
IC50 of cell viability [1]: 26.6 µM
efficacy [2]: -94.6%

[Hg+2] [Mercuric chloride]
IC50 of cell viability [1]: 2.37 µM
efficacy [2]: -90.3%

COCC(=O)O[C@]1(CCN(C)CCCc2nc3ccccc3[nH]2)CCc2cc(F)ccc2[C@@H]1C(C)C.Cl.Cl [Mibefradil dihydrochloride]
IC50 of cell viability [1]: 11.9 µM
efficacy [2]: -97.9%

Oc1ccc(OCc2ccccc2)cc1 [Monobenzone]
IC50 of cell viability [1]: 10.1 µM
efficacy [2]: -55.4%

CCC(C(=O)O)C1OC(C(C)C(O)C(C)C(=O)C(CC)C2OC3(C=CC(O)C4(CCC(C)(C5CCC(O)(CC)C(C)O5)O4)O3)C(C)CC2C)C(C)CC1C (stereo not drawn) [NARASIN]
IC50 of cell viability [1]: 1.68 µM
efficacy [2]: -46.7%

COc1cc(-c2ccc(-[n+]3nc(-c4ccccc4)nn3-c3ccc([N+](=O)[O-])cc3)c(OC)c2)ccc1-[n+]1nc(-c2ccccc2)nn1-c1ccc([N+](=O)[O-])cc1 [NITROBLUE TETRAZOLIUM CHLORIDE]
IC50 of cell viability [1]: 21.1 µM
efficacy [2]: -107%

O=C(Nc1ccc([N+](=O)[O-])cc1)Nc1ccc([N+](=O)[O-])cc1 [Nicarbazin]
IC50 of cell viability [1]: 10.6 µM
efficacy [2]: -44.1%

O=C(Nc1ccc([N+](=O)[O-])cc1Cl)c1cc(Cl)ccc1O [Niclosamide]
IC50 of cell viability [1]: 0.473 µM
efficacy [2]: -41.1%

O=[N+]([O-])c1ccc(O)c2ncccc12 [Nitroxoline]
IC50 of cell viability [1]: 21.1 µM
efficacy [2]: -85.8%

COC(=O)Nc1nc2cc(C(=O)c3cccs3)ccc2[nH]1 [Nocodazole]
IC50 of cell viability [1]: 0.531 µM
efficacy [2]: -60.2%

C[N+]1(CC2COC(c3ccccc3)(C3CCCCC3)O2)CCCCC1 (stereo not drawn) [OXAPIUM IODIDE]
IC50 of cell viability [1]: 6.68 µM
efficacy [2]: -60.2%

CCCOc1ccc2[nH]c(NC(=O)OC)nc2c1 [OXIBENDAZOLE]
IC50 of cell viability [1]: 0.531 µM
efficacy [2]: -39%

Oc1cc[c]([Hg][Cl])cc1 [PARA-CHLOROMERCURIPHENOL]
IC50 of cell viability [1]: 2.37 µM
efficacy [2]: -97.8%

CC(=O)[O][Hg][c]1ccccc1 [PHENYLMERCURIC ACETATE]
IC50 of cell viability [1]: 2.37 µM
efficacy [2]: -93.4%

[Hg+][c]1ccccc1 [PHENYLMERCURIC BORATE]
IC50 of cell viability [1]: 2.99 µM
efficacy [2]: -91.5%

O=Cc1ccccc1C=O [PHTHARAL]
IC50 of cell viability [1]: 13.3 µM
efficacy [2]: -54.4%

Cc1cc(CC(C)CC(C)(C)C)n(O)c(=O)c1 (stereo not drawn) [PIROCTONE OLAMINE]
IC50 of cell viability [1]: 15 µM
efficacy [2]: -49%

Nc1ccc2cc3ccc(N)cc3nc2c1 [PROFLAVINE HEMISULFATE]
IC50 of cell viability [1]: 8.41 µM
efficacy [2]: -91.5%

COc1ccc(CC(N)C(=O)NC2C(CO)OC(n3cnc4c(N(C)C)ncnc43)C2O)cc1.Cl.Cl (stereo not drawn) [PUROMYCIN HYDROCHLORIDE]
IC50 of cell viability [1]: 11.9 µM
efficacy [2]: -63.1%

CC(=O)O[C@H]1C(=O)[C@@]2(C)[C@H]([C@H](OC(=O)c3ccccc3)[C@]3(O)CC(OC(=O)C(O)C(NC(=O)c4ccccc4)c4ccccc4)C(C)=C1C3(C)C)[C@]1(OC(C)=O)CO[C@@H]1C[C@@H]2O (stereo partly drawn) [Paclitaxel]
IC50 of cell viability [1]: 0.0376 µM
efficacy [2]: -50.9%

CCCCc1ccc2[nH]c(NC(=O)OC)nc2c1 [Parbendazole]
IC50 of cell viability [1]: 0.453 µM
efficacy [2]: -45.1%

C=C1C(=O)O[C@@H]2[C@@H]1CC/C(C)=C\CC[C@@]1(C)O[C@H]21 [Parthenolide]
IC50 of cell viability [1]: 8.41 µM
efficacy [2]: -104%

NNCCc1ccccc1 [Phenelzine sulfate]
IC50 of cell viability [1]: 5.08 µM
efficacy [2]: -52.6%

Cc1ccc2c(c1)c1c3n2CCNC3CCC1 (stereo not drawn) [Pirlindole mesylate]
IC50 of cell viability [1]: 21.1 µM
efficacy [2]: -45.7%

CC(C)NC(=N)NC(=N)Nc1ccc(Cl)cc1 [Proguanil hydrochloride]
IC50 of cell viability [1]: 4.53 µM
efficacy [2]: -59%

CCc1nc(N)nc(N)c1-c1ccc(Cl)cc1 [Pyrimethamine]
IC50 of cell viability [1]: 8.41 µM
efficacy [2]: -35%

Cc1cc(/C=C\c2ccc3cc(N(C)C)ccc3[n+]2C)c(C)n1-c1ccccc1.Cc1cc(/C=C\c2ccc3cc(N(C)C)ccc3[n+]2C)c(C)n1-c1ccccc1.O=C([O-])c1cc2ccccc2c(Cc2c(O)c(C(=O)[O-])cc3ccccc23)c1O [Pyrvinium pamoate]
IC50 of cell viability [1]: 0.64 µM
efficacy [2]: -33.3%

COc1cc(NCCCC(C)N)c2ncccc2c1 (stereo not drawn) [QUINOCIDUM]
IC50 of cell viability [1]: 18.8 µM
efficacy [2]: -93.9%

CCN1/C(=C/C=C/c2ccc3ccccc3[n+]2CC)C=Cc2ccccc21 [Quinaldine blue]
IC50 of cell viability [1]: 0.299 µM
efficacy [2]: -34.9%

C#C[C@]1(O)CC[C@H]2[C@@H]3CCc4cc(OC5CCCC5)ccc4[C@H]3CC[C@@]21C [Quinestrol]
IC50 of cell viability [1]: 18.8 µM
efficacy [2]: -61.1%

COC(=O)C12CCC(C)(C)CC1C3C(=O)\C=C4/C(C)(CCC5C(C)(C)C(=O)\C(=C/C45C)C#N)C3(C)CC2 (stereo not drawn) [RTA 402]
IC50 of cell viability [1]: 6.68 µM
efficacy [2]: -108%

CC[C@@]1(O)C(=O)OC/C2=C1/C=C/3N(CC4=CC5=C(C=CC=C5[N+]([O-])=O)N=C34)C2=O [RUBITECAN]
IC50 of cell viability [1]: 0.422 µM
efficacy [2]: -54.5%

C[C@@H]1CN(CCCn2c3ccccc3c3ccccc32)C[C@H](C)N1 [Rimcazole dihydrochloride]
IC50 of cell viability [1]: 21.1 µM
efficacy [2]: -89.8%

C=C(C)[C@H]1Cc2c(ccc3c2O[C@@H]2COc4cc(OC)c(OC)cc4[C@@H]2C3=O)O1 [Rotenone]
IC50 of cell viability [1]: 2.66 µM
efficacy [2]: -124%

[Na+].CCC(C1CCC(C)C(O1)C(C)C(O)C(C)C(=O)C(CC)C2OC\3(O[C@]4(CC[C@@](C)(O4)C5CC[C@@](O)(CC)C(C)O5)C(O)\C=C3)C(C)CC2C)C([O-])=O (stereo partly drawn) [SALINOMYCIN, SODIUM]
IC50 of cell viability [1]: 3.35 µM
efficacy [2]: -47.9%

CNC(=O)c1cc(Oc2ccc(NC(=O)Nc3ccc(Cl)c(C(F)(F)F)c3)cc2)ccn1 [SORAFENIB TOSYLATE]
IC50 of cell viability [1]: 8.41 µM
efficacy [2]: -44.4%

O=C(CCCCCCC(=O)Nc1ccccc1)NO [SUBEROYLANILIDE HYDROXAMIC ACID]
IC50 of cell viability [1]: 2.37 µM
efficacy [2]: -58.6%

C[n+]1cc2c3c(ccc2c2ccc4cc5c(cc4c21)OCO5)OCO3 [Sanguinarine]
IC50 of cell viability [1]: 8.41 µM
efficacy [2]: -87.7%

Reference: the supplement of paper PMC3974653
